Data from US20090203783A1, “THERAPEUTIC AGENT FOR ACUTE CEREBRAL INFARCT” (ONO PHARMACEUTICAL CO., LTD., priority 2005, published 2009).

What was measured:
Assay type in all cases: in vivo, human
[1] = test system: patients of acute cerebral infarction; test: Example 3 clinical trial, safety (adverse events); conditions: 8 or 12 mg/kg/hr iv, 7 days
Protocol: (§1) As a clinical trial, a double blind placebo-controlled parallel group study was carried out under the following conditions using patients of acute cerebral infarction as the object.
(§2) A total of 7 times for one hour intravenous continuous administration at intervals of about 24 hours in each group (administration period: 7 days).
(§3) Frequency of adverse event and contents thereof (symptom, causal relation and the like)

[2] = test system: patients of acute cerebral infarction; test: Example 1 clinical trial, modified Rankin Scale (mRS); conditions: 10 mg/kg/hr iv, 5 days, after 3 months, administration 5.5 to 6 hours from onset
Protocol: (§4) As a clinical trial, a double blind placebo-controlled parallel group study was carried out under the following conditions with patients of acute cerebral infarction as the object.
(c) A patient who undergoes randomization by the study within 6 hours from the first infarction symptom and undergoes the first administration by the blind test (When the patient awoke under an infarction symptom which was not observed before sleeping, start of the infarction symptom is regarded as the started time of sleeping. When the started time is not clear, start of the infarction symptom is regarded as the time when the patient was lastly normal.);
(f) A patient defined as a score of from 11 to 22 on NIH Stroke Scale, within 1 hour before the first administration;
(§5) A total of 5 times for one hour intravenous continuous administration at intervals of about 24 hours in each group (administration period: 5 days).
(§6) Evaluation method: Symptoms of patients were evaluated in accordance with the aforementioned list of marks of NIH Stroke Scale, about 1 month after or about 3 months after the commencement of administration. (2) Modified Rankin Scale (mRS) Evaluation method: Symptoms of patients were scored by classifying the symptoms of patients into the following grades of from 0 to 5, about 1 month after or about 3 months after the commencement of administration. 0: No symptoms at all. 1: No significant disability despite symptoms; able to carry out all usual duties and activities. 2: Slight disability; unable to carry out all previous activities, but able to look after own affairs without assistance. 3: Moderate disability; requiring some help, but able to walk without assistance. 4: Moderately severe disability; unable to walk without assistance and unable to attend to own bodily needs without assistance. 5: Severe disability; bedridden, incontinent and requiring constant nursing care and attention.

[3] = test system: patients of acute cerebral infarction; test: Example 3 clinical trial, efficacy evaluation items; conditions: 7 days
Protocol: as §1, §2
(§7) Symptoms of patients were evaluated after about 1 month or after about 3 months from the commencement of the administration, in accordance with the methods described in the aforementioned [EFFICACY EVALUATION ITEMS] of Example 1.

[4] = test system: patients of acute cerebral infarction; test: Example 2 clinical trial, modified Rankin Scale (mRS); conditions: 7 days
Protocol: as §6, §1
(e) A patient whose period of time from the onset of cerebral infarction until commencement of administration is 72 hour or less;
as §2, §7

[5] = test system: patients of acute cerebral infarction; test: Example 1 clinical trial, safety (adverse events); conditions: 4 or 10 mg/kg/hr iv, 5 days
Protocol: as §4, §5, §3

[6] = test system: patients of acute cerebral infarction; test: Example 2 clinical trial, safety (adverse events); conditions: 0.4, 4 or 8 mg/kg/hr iv, 7 days
Protocol: as §1, §2, §3

[7] = test system: patients of acute cerebral infarction; test: Example 1 clinical trial, Stroke Impact Scale (SIS) items 1a-1d, 4a; conditions: about 3 months, 5 hours or more from onset
Protocol: as §4, §5
Based on the results of the above-mentioned efficacy evaluation items and safety evaluation items, therapeutic effect of the intravenous continuous administration of (2R)-2-propyloctanoic acid to cerebral infarction patients was evaluated. Additionally, in order to examine the therapeutic effect more in detail, improving effect of the intravenous continuous administration of (2R)-2-propyloctanoic acid for each of (a) [Arm strength], (b) [Grip], (c) strength of the legs [Leg], (d) strength of the ahead of the ankle [Ankle/foot], and (e) language [Naming] was evaluated after about 3 months from the commencement of administration, using the items 1a, 1b, 1c, Id and 4a of the Stroke Impact Scale (SIS). In this connection, the Stroke Impact Scale is a conventionally known evaluation method and can be obtained from an internet <URL: www.chrp.org/, www.strokecenter.org, www2.kumc.edu/coa/> and the like. Specifically, the evaluation of 1a, 1b, 1c and id is carried out by a mode of selecting any one of the answers, A lot of strength, Quite a bit of strength, Some strength, A little strength and No strength at all, for the following questions
and five scores, four scores, 3 scores, 2 scores and 1 score are given in response to the respective answers.
Additionally, the evaluation of 4a is carried out by a mode of selecting any one of the answers, Not difficult at all, A little difficult, Somewhat difficult and Very difficult and Extremely difficult, for the following questions
In this case, the group P represents a placebo administration group, and the group L represents a (2R)-2-propyloctanoic acid 4 mg/kg/hr administration group, and the group H represents a (2R)-2-propyloctanoic acid 10 mg/kg/hr administration group. The evaluation result of each item was shown by a form of “(the number of patients having an evaluation score of 4 or more)/(the number of patients evaluated)”.

Q: What does the source list for CCCCCC[C@@H](CCC)C(=O)O [(2R)-2-propyloctanoic acid]?
A: severe adverse event having a different frequency between drug group and placebo group [1]: not found; side effect in which its frequency increases depending on the dose [1]: not found; ratio of the number of patients whose mRS scores became 0 to 3 [2]: 31.5%; ratio of the number of patients whose mRS scores became 0 to 3 ([2]; patients of less than 80 years, NIH Stroke Scale 11 to 18): 46.0%; ratio of the number of patients whose mRS scores became 0 to 3 ([2]; patients of less than 80 years): 39.0%; improving effects of the items shown in the efficacy evaluation items ([3]; 8 mg/kg/hr iv): excellent improving effects; improving effects of the items shown in the efficacy evaluation items ([3]; 12 mg/kg/hr iv): excellent improving effects; ratio of mRS occupying 0 to 2 ([4]; 0.4 mg/kg/hr iv, after 3 months, JCS I-1 to I-3 and NIH Stroke Scale 7 or more): 48.1%; ratio of mRS occupying 0 to 2 ([4]; 4 mg/kg/hr iv, after 3 months, JCS I-1 to I-3 and NIH Stroke Scale 7 or more): 47.9%; ratio of mRS occupying 0 to 2 ([4]; 8 mg/kg/hr iv, after 1 month): 45.7%; ratio of mRS occupying 0 to 2 ([4]; 8 mg/kg/hr iv, after 3 months): 58.1%; ratio of mRS occupying 0 to 2 ([4]; 8 mg/kg/hr iv, after 3 months, JCS I-1 to I-3 and NIH Stroke Scale 7 or more): 63.0%; ratio of mRS occupying 0 to 2 ([4]; 8 mg/kg/hr iv, after 3 months, patients with JCS I-1 to I-3 before administration): 69.1%; severe adverse events having a different frequency between drug group and placebo group [5]: not found; side effect in which its frequency increases depending on the dose [5]: not found; severe adverse event having a different frequency between drug group and placebo group [6]: not found; side effect in which its frequency increases depending on the dose [6]: not found; SIS Ankle/foot: (number of patients having an evaluation score of 4 or more)/(number of patients evaluated) ([7]; Group H, 10 mg/kg/hr): 60/100; SIS Ankle/foot: ratio of patients with evaluation score of 4 or more ([7]; Group H, 10 mg/kg/hr): (60%); SIS Arm strength: (number of patients having an evaluation score of 4 or more)/(number of patients evaluated) ([7]; Group H, 10 mg/kg/hr): 44/100; SIS Arm strength: ratio of patients with evaluation score of 4 or more ([7]; Group H, 10 mg/kg/hr): (44%); SIS Grip: (number of patients having an evaluation score of 4 or more)/(number of patients evaluated) ([7]; Group H, 10 mg/kg/hr): 46/100; SIS Grip: ratio of patients with evaluation score of 4 or more ([7]; Group H, 10 mg/kg/hr): (46%); SIS Leg: (number of patients having an evaluation score of 4 or more)/(number of patients evaluated) ([7]; Group H, 10 mg/kg/hr): 59/100; SIS Leg: ratio of patients with evaluation score of 4 or more ([7]; Group H, 10 mg/kg/hr): (59%); SIS Naming: (number of patients having an evaluation score of 4 or more)/(number of patients evaluated) ([7]; Group H, 10 mg/kg/hr): 65/100; SIS Naming: ratio of patients with evaluation score of 4 or more ([7]; Group H, 10 mg/kg/hr): (65%); SIS Ankle/foot: (number of patients having an evaluation score of 4 or more)/(number of patients evaluated) ([7]; Group L, 4 mg/kg/hr): 39/88; SIS Ankle/foot: ratio of patients with evaluation score of 4 or more ([7]; Group L, 4 mg/kg/hr): (44%); SIS Arm strength: (number of patients having an evaluation score of 4 or more)/(number of patients evaluated) ([7]; Group L, 4 mg/kg/hr): 34/88; SIS Arm strength: ratio of patients with evaluation score of 4 or more ([7]; Group L, 4 mg/kg/hr): (39%); SIS Grip: (number of patients having an evaluation score of 4 or more)/(number of patients evaluated) ([7]; Group L, 4 mg/kg/hr): 36/88; SIS Grip: ratio of patients with evaluation score of 4 or more ([7]; Group L, 4 mg/kg/hr): (41%); SIS Leg: (number of patients having an evaluation score of 4 or more)/(number of patients evaluated) ([7]; Group L, 4 mg/kg/hr): 46/88; SIS Leg: ratio of patients with evaluation score of 4 or more ([7]; Group L, 4 mg/kg/hr): (52%); SIS Naming: (number of patients having an evaluation score of 4 or more)/(number of patients evaluated) ([7]; Group L, 4 mg/kg/hr): 58/88; SIS Naming: ratio of patients with evaluation score of 4 or more ([7]; Group L, 4 mg/kg/hr): (66%)
